Source: US4734280A, “Treatment or prevention of PAF Acether-induced maladies” (priority 1984, dated 1988)
Read-outs that look alike come from different tables or passages of the source.

Columns and labels:
[1] = tested on: Sprague-Dowley rats; experiment: Cutaneous vascular hyperpermeability induced by PAF Acether in the rat; format: in vivo; conditions: 1 mg/kg IV; for PAF Acether induced wheal, Surface: PAF Acether 25 ng intradermal, 30 mn; for PAF Acether induced wheal, Surface / PAF Acether induced wheal, Coloration OD: p < 0.001; for PAF Acether induced wheal, Coloration OD: optical density at 620 nm; for PAF Acether induced wheal, Coloration % decrease / PAF Acether induced wheal, Surface % decrease: vs control
Procedure: Method: Intradermal injection of 25 ng of PAF Acether in the dorsal region of the rat with simultaneous IV injection of Evans blue dye (60 mg/kg/5 ml) induces vascular hyperpermeability and wheals formation. (for details see Basran GS, Page CP, Paul W and Morley J-Cromoglycate inhibits responses to platelet-activating factor (PAF Acether) in man: an alternative mode of action for DSCG in asthma-Eur. J. Pharma. (1983) 86 143-144).
These wheals were measured (surface in mm^2) at the inner side of the skin 30 mn after the injections and were taken off, put in 4 ml of formamide, incubated at 65° C. during 24 h in order to extract the dye and measure their coloration (optical density at 620 nm).
Groups of 6 Sprague-Dowley rats weighing 200 g were used and each rat received intradermal injections in two sites of the back. The experiment was performed in comparison with a reference compound, D 600 (methoxy verapamil), a calcium-blocker agent.
Treatments: Tested compounds were administered by IV route injected once simultaneously with the dye.

[2] = tested on: guinea-pig mesenteric artery; experiment: Opto-electronic follow-up of PAF Acether-induced thrombus, guinea-pig mesenteric artery; format: in vivo
Source text: In this experimental study, 20 guinea-pigs were used. […] Briefly summarized, this method consists in the dissection over a distance of 2 to 3 mm of a branch of the mesenteric artery following gently extraction of a loop of small intestine. By transillumination, the image of this arterial segment is projected onto a set of 30 light-depending resistances (LDR) arranged in two columns of 15 elements each. An LDR element has the property to change its internal resistance as a function of a variation of light intensity. Each LDR is connected into its own Wheatstone bridge, and the changes in light intensity due to thrombus formation will be recorded as variations in electrical potentials and registered as such via a multiplexing device.
In the present investigation, several discriminating parameters are recorded: (a) the t1 interval or the lag period (this is the time interval between the beginning of the PAF Acether superfusion and the first signs of thrombus formation; (b) the td interval is the duration of the thrombotic phenomenon; (c) the O(t) curve indicates the number of LDR elements covered by the thrombus image; (d) the D(t) curve represents during each 30×1/9×10^-2 sec interval the greatest potential deviation on one of the LDR elements covered by the thrombus image; (e) the T(t) curve represents the summation of the potentials registered on the LDR elements during a time interval of 30×1/9×10^-2 sec the TTV(t) curve results from the integration of the T(t) values in function of time; (f) mD, mT, and mO correspond to the maximal values registered on, respectively, the D(t), T(t), and O(t) curves; (g) TTV is the maximal value of the TTV(t) curve, whereas TVM is the value of this curve up to the point where mT is reached.
In a first series of experiments (10 animals) the effect of local superfusion with PAF Acether (10^-4 M) is investigated.
In a second series of experiments (10 animals) the effects of Ginkgolide B and of kadsurenone have been compared preventively and curatively.

[3] = tested on: human PRP; experiment: Inhibition of PAF Acether-induced PA, human PRP in vitro; format: cell-based; conditions: PAF Acether 100 nM, read-out: IC Doses (PAF Acether-induced PA, human PRP)
Procedure: (§1) The Inhibition of PAF Acether-induced PA has been studied on rabbit plasma-rich platelets (PRP). Two doses of PAF Acether were used (2.5 nM and 5 nM). The tested compound was added to the medium 3 minutes before PAF Acether and aggregation was followed by monitoring changes in electrical impedance (Whole-Blood aggregometer-chrono-Log); kadsurenone was simultaneously tested as reference compound and the IC50 molar doses of Ginkgolides A, B, C and M and of kadsurenone on PAF Acether-induced rabbit PA (PRP) have been calculated.
The inhibition of PAF Acether-induced PA has been studied on human PRP. The same protocol was used as for rabbit hereinabove.

[4] = tested on: rabbit plasma-rich platelets (PRP); experiment: Inhibition of PAF Acether-induced PA, rabbit PRP in vitro; format: cell-based; conditions: Oryctolagus cuniculus, Platelet, average of 10 assays, read-out: IC50 doses on PAF Acether-induced rabbit PA (PRP)
Procedure: as §1
The results obtained are presented in the following table (average values for 10 assays for each dose) and FIG. 1: […]

[5] = tested on: Hartley guinea-pig; experiment: PAF Acether-induced bronchoconstriction in the anesthetized guinea-pig; format: in vivo; conditions: 1 mg/kg IV; for % of bronchoconstriction: 5 minutes before PAF Acether 60 ng/kg IV, % of maximal bronchoconstriction, average of 10 animals; for % of inhibition (bronchoconstriction): vs solvent in the same batch
Procedure: Method: (For details, see B. B. VARGAFTIG, J. LEFORT, F. WAL, M. CHIGNARD and M. C. MEDEIROS-Non-steroidal anti-inflammatory drugs of combined with anti-histamine and anti-serotonin agents interfere with the bronchial and platelet effects of PAF Acether-Enr. J. Pharm. (1982) 82 121-130). Male Hartley guinea-pig (400-500 g) were anesthetized with urethane 2 g/kg Ip., tracheotomised and ventilated by mean of a respiratory pump: 70-80 strokes mn, stroke volume 5 ml, a pneumothorax was done to abolish spontaneous respiration. The right jugular vein was catherized and used for injections.
The initial resistance was kept constant at 10 cm H2 O pressure according to the method of Konzett and Rossler and the overflowed airway was measured with a bronchospasm transducer UGO BASILE connected to a UGO BASILE recorder "GEMINI". Bronchial sensitivity of the animal was checked with acetylcholine (10-40 ng kg^-1 IV) and after constant response was obtained, there were injected, IV, first the propylene glycol and, five minutes later, 60 ng/kg of PAF Acether, which gave the control bronchoconstriction expressed as % of maximal bronchoconstriction given by clamping off the trachea. 40 minutes later, the tested compounds were administered by IV injection and, 5 minutes later, 60 ng/kg of PAF Acether by the same route. This experimentation was conducted on three batches of each 10 animals: first batch for Ginkgolide A, second one for Ginkgolide B and last one for Ginkgolide C, all at the 1 mg/kg dose. The figures of the following table are the average values for the 10 animals of each batch.

[6] = tested on: New-Zealand rabbits; experiment: PAF Acether-induced shock in the rabbit; format: in vivo; conditions: for Extravasation (O.D.): 2 mg/kg IV perfusion, 30 mn, optical density at 590 nm, average of 10 animals; for Behaviour: behavioural modifications / Behaviour: deaths: 2 mg/kg IV, PAF Acether 2 and 4 nmol/kg, 10 animals per batch
Procedure: Treatment: Tested compounds (Gingkolides A, B and C) or vehicle were perfused in the ear vein in 45 ml NaCl 0.9% for 1 hour before PAF Acether injection. Vehicle consisted of 1.5 ml of propylene glycol completed to 45 ml by isotonic NaCl buffer; Ginkgolides were administered at the dose of 2 mg/kg IV; the figures reported in the following table are the average values of the 10 animals of each batch.

[7] = molecular target: T1, PAF-Acether receptor (Oryctolagus cuniculus, UniProt G1TEI7); experiment: Competition with 3H-PAF Acether binding, rabbit membrane platelet preparation; conditions: read-out: reduction of 3H-PAF Acether binding
T1 construct: using a rabbit membrane platelet preparation; from tissue; host or cells: rabbit platelets (membrane preparation)
Source text: The competition of the alternative binding of either ^3 H-PAF Acether or one of the Ginkgolides was evidenced by radioactive determinations using a rabbit membrane platelet preparation. (100% control=^3 H-PAF Acether alone).

[8] = tested on: human platelets; experiment: Ex vivo PAF Acether-induced PA in man after IV administration; conditions: IV 25 mg, PAF Acether 100 nM
Procedure: […] DMSO).
The same protocol described hereinabove for rabbit was used in man with only one dose of each Ginkgolide (IV 25 mg) and two blood takes (at 0.5 h and 1 h).

[9] = tested on: rabbit plasma-rich platelets (PRP); experiment: Aggregation induced by other known aggregants (ADP, thrombine, calcium ionophore A 23187, collagen, adrenaline); format: cell-based; conditions: calcium ionophore A 23187, collagen and adrenaline
[10] = tested on: guinea-pig lung parenchymal strip; experiment: PAF Acether-induced contraction of superfused lung parenchymal strip; conditions: for inhibition at 30 µg/mL: Cavia porcellus, read-out: change of PAF Acether (3 ng)-induced contraction; for Contraction induced by PAF Acether (3 ng) (Arbitrary Units): preventive superfusion 30 μg/ml, average of 10 determinations

T1 sequence (G1TEI7 1-342): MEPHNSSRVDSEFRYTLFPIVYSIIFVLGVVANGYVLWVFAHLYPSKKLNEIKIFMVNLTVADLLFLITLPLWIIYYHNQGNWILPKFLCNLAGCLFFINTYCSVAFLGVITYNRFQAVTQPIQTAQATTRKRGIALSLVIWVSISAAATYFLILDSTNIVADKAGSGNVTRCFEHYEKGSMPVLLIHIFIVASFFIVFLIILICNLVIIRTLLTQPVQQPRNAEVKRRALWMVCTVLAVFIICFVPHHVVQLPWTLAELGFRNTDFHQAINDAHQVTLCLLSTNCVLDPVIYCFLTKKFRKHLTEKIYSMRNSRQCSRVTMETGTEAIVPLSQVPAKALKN

SMILES	PAF Acether induced wheal, Surface [1]	PAF Acether induced wheal, Coloration OD [1]	PAF Acether induced wheal, Coloration % decrease [1]	PAF Acether induced wheal, Surface % decrease [1]	IC50 [3]	IC50 ([4]; PAF Acether 2.5 nM)	IC50 ([4]; PAF Acether 5 nM)	% of bronchoconstriction [5]	% of inhibition (bronchoconstriction) [5]	Extravasation (O.D.) ([6]; PAF Acether 2 nmol/kg)	Extravasation (O.D.) ([6]; PAF Acether 4 nmol/kg)	Behaviour: behavioural modifications [6]	Behaviour: deaths [6]	inhibition at 10 µM [7]	% of aggregation with respect to control ([8]; blood take at 0.5 h)	% of aggregation with respect to control ([8]; blood take at 1.0 h)	effect against aggregation induced by other known aggregants [9]	Contraction induced by PAF Acether (3 ng) (Arbitrary Units) [10]	other results
COc1ccc(CCN(C)CCCC(C#N)(c2cc(OC)c(OC)c(OC)c2)C(C)C)cc1OC (stereo not shown) [D 600, methoxy verapamil, reference compound]	62.6 mm^2	0.664 OD	-42%	-39%	–	–	–	–	–	–	–	–	–	–	–	–	–	–	deaths/6 ([1]; group of 6 rats): two
C=CCC1=C[C@@]2(OC)C(=CC1=O)O[C@H](c1ccc(OC)c(OC)c1)[C@H]2C [Kadsurenone, kadsurenone, reference compound]	–	–	–	–	130 µM	9.94 µM	14 µM	–	–	–	–	–	–	–	–	–	–	–	thrombus formation when superfused with PAF Acether (preventive) ([2]; PAF Acether superfusion): no thrombus appeared; time for disappearance of pre-formed thrombus (curative) ([2]; PAF Acether-induced thrombus): about 4.30 minutes
CC1C(=O)OC2C(O)C34C5OC(=O)C3(OC3OC(=O)C(O)C34C(C(C)(C)C)C5O)C12O (stereo not shown) [Ginkgolide C]	68.1 mm^2	0.701 OD	-39%	-34%	150 µM	15.3 µM	25.4 µM	17.0%	78.6%	0.910 O.D.	0.875 O.D.	No behavioural	No death	83%	0%	10.6%	totally ineffective	11.08 ± 2.42 Arbitrary Units	inhibition at 30 µg/mL [10]: 70.8%
C[C@@H]1C(=O)O[C@H]2C[C@@]34[C@H]5C[C@@H](C(C)(C)C)[C@]36[C@@H](OC(=O)[C@@H]6O)O[C@@]4(C(=O)O5)[C@]21O [Ginkgolide A]	64.3 mm^2	0.631 OD	-45%	-37%	90 µM	8.32 µM	13.2 µM	13.3%	84.1%	0.903 O.D.	0.881 O.D.	No behavioural	No death	67%	0%	5.7%	totally ineffective	10.30 ± 2.33 Arbitrary Units	inhibition at 30 µg/mL ([10]; 30 μg/ml, p < 0.001): 72.8%
CC1C(=O)OC2C1C13OC4OC(=O)C(O)C45C(C(C)(C)C)C(O)C(OC1=O)C35C2O (stereo not shown) [Ginkgolide M]	–	–	–	–	–	122 µM	20.2 µM	–	–	–	–	–	–	–	–	–	totally ineffective	–	inhibition at 100 µM [7]: 79%
